In data set [1] the test system is murine macrophages of J774.2 line. In words: MTT assay of cell viability. The following applies: Mus musculus, J774.2, 72 h. Background: Tetrazolium assays rely on reduction of a dye to a coloured formazan, in cell work by metabolically active cells.
A further data set deals with K-562 (Leukemia). In words: NCI one-dose SRB assay. The following applies: 10 μM, 48 h. In general terms: Sulforhodamine B stains cellular protein and so reports cell mass.
A further data set has as its system SR (Leukemia). In words: NCI one-dose SRB assay. The following applies: 10 μM, 48 h.
A further data set relates to T-47D (Brest Cancer). In words: NCI one-dose SRB assay. As to conditions: 10 μM, 48 h.
The subject of data set [2] is human epidermal keratinocytes of HaCaT line. In words: MTT assay of cell viability. The following applies: 72 h.
For data set [3], the system named is panel of 60 cancer cell lines. In words: NCI DTP one-dose primary anticancer assay (10^-5 M, SRB). The following applies: 10 μM.
Protocol: (§1) Primary anticancer assays (Table 3) on a panel of 60 cancer cell lines at one dose-assay (10^−5 M) were performed according to the NCI protocol, as described elsewhere [31, 32, 33, 34, 35].
(§2) A primary anticancer assay was performed on a panel of approximately sixty human tumor cell lines derived from nine neoplastic diseases, in accordance with the protocol of the Drug Evaluation Branch, National Cancer Institute, Bethesda [31, 32, 33, 34, 35]. Tested compounds were added to the culture at a single concentration (10^−5 M) and the cultures were incubated for 48 h. End point determinations were made with a protein binding dye, Sulphorhodamine B (SRB). […] The percentage growth was evaluated spectrophotometrically versus controls not treated with test agents.
The subject of data set [4] is HCT-116 p53 (−/−) colon cancer cells. In words: MTT assay of cell viability. As to conditions: Homo sapiens, HCT-116, 72 h.
Description: The cell lines used in our work were kindly provided by a Collection at the Institute of Molecular Biology and Genetics, National Academy of Sciences of Ukraine (Kyiv, Ukraine).
The subject of a further data set is SK Mel-5 (Melanoma). In words: NCI one-dose SRB assay. The following applies: 10 μM, 48 h.
Another data set relates to SK-OV-3 (ovarian). In words: MTT assay of cell viability. The following applies: Homo sapiens, SK-OV-3, 72 h.
For another data set, the system named is Jurkat (leukemia). In words: MTT assay of cell viability. The following applies: Homo sapiens, 72 h.
The test system of the next data set is KB3-1 (cervix). In words: MTT assay of cell viability. The following applies: Homo sapiens, KB 3-1, 72 h, KB3-1; 72 h of incubation, M ± SD.
The next data set concerns HCT-116 (colon). In words: MTT assay of cell viability. As to conditions: Homo sapiens, HCT-116, 72 h, HCT-116; 72 h of incubation, M ± SD.
For the next data set, the system named is MCF-7 (breast). In words: MTT assay of cell viability. As to conditions: Homo sapiens, MCF7, 72 h, MCF-7; 72 h of incubation, M ± SD.
A further data set deals with A549 (lung). In words: MTT assay of cell viability. As to conditions: Homo sapiens, A549, 72 h.

Protocol for K-562 (Leukemia): as §1, §2
Protocol for SK Mel-5 (Melanoma): (§3) Tested compounds were added to the culture at a single concentration (10^−5 M) and the cultures were incubated for 48 h. End point determinations were made with a protein binding dye, Sulphorhodamine B (SRB). […] The percentage growth was evaluated spectrophotometrically versus controls not treated with test agents.
Protocol for SR (Leukemia): as §1, §2
Protocol for T-47D (Brest Cancer): as §3

Broadly, the IC50 is the concentration that gives 50% inhibition. Consider `CC(=O)N1N=C(c2sc(Nc3ccccn3)nc2C)CC1c1ccccc1F` (stereo not shown) [Compound 6, 1-{5-(2-Fluorophenyl)-3-[4-methyl-2-(2-pyridylamino)-thiazol-5-yl]-4,5-dihydropyrazol-1-yl}-ethanone], for which the IC50 was over 50 µM in [1]; over 50 µM in [2]; 29.1 ± 1.45 µM in data set [4]; 39.6 ± 2.37 µM in the data set with SK-OV-3 (ovarian); over 100 µM in the data set on Jurkat (leukemia); 24.9 ± 0.74 µM in the data set with KB3-1 (cervix). Also, the values for the IC50 in the data set on HCT-116 (colon), in the data set with MCF-7 (breast) and with A549 (lung) were over 50 µM, 45.4 ± 2.2 µM and 63.4 ± 3.81 µM, respectively. Also, the Growth % in the data set on K-562 (Leukemia) is listed as 15.62%; with SR (Leukemia) it was 12.53%; in the data set with T-47D (Brest Cancer), 14.27%; in the data set on SK Mel-5 (Melanoma), 17.75%. In addition, the “Range of Growth, %” value in data set [3] (48 h, 60 cell lines) was 12.53–95.32%. Moreover, the “Positive Cytostatic Effect” value in data set [3] (number of cell lines with percent growth from 0 to 50 / total number of cell lines) is on record as 32/59. For the same molecule, in data set [3] (number of cell lines with percent growth of <0 / total number of cell lines), the “Positive Cytotoxic Effect” value is recorded as 0/59.

The values above are taken from paper PMC9570594, “Development of Novel Pyridine-Thiazole Hybrid Molecules as Potential Anticancer Agents” (Molecules, 2022).
